Results reported in PubChem BioAssay AID463204 (Broad Institute, 2010).
Activity calls are given as the source filed them.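 How the source made its calls: active means AC50 no more than ten times the top concentration tested, that is within one log above it; inconclusive means flat curve fit with activity between 30% and 70%, or invalid poor fit; inactive means AC50 beyond ten times the top tested dose.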

Test system: S. cerevisiae Mot1-301 ts growth rescue, BacTiter-Glo ATP luminescence
Test: growth rescue of Mot1-301 ts yeast, confirmation, SUMOylation pathway inhibitor project, whole organism, S. cerevisiae, Mot1-301 ts mutant, luminescence, dose retest (AID 463204);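 further: growth at restrictive 38.5 degrees C of Mot1-301 OY566 strain; actives raise luminescence by restoring growth of the ts mutant at high temperature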

| SMILES | AC50 |
| --- | --- |
| CC1(C)C2CC[C@]3(C)C(CC=C4[C@@H]5C[C@@](C)(CO)[C@@H](O)C[C@]56C[C@@H](OC6=O)[C@]43C)[C@@]2(C)CC[C@@H]1O (some centres undefined) | > 42 µM (inactive) |
| COc1ccccc1NC(=O)NCCc1c[nH]c2ccccc12 | > 42 µM (inactive) |
| Cc1ccc(-c2csc(C3=C(O)CN(NC(=O)c4ccco4)C3=N)n2)cc1 | > 42 µM (inactive) |
| COc1ccc(-c2oc3ccc(-c4cc(OC)c(OC)c(OC)c4)cc3c2C(=O)c2ccc(OC)nc2)cc1 | > 42 µM (inactive) |
| O=C(NCCCn1ccnc1)Nc1cccc2ccccc12 | > 42 µM (inactive) |
| CCOC(=O)c1cc([N+](=O)[O-])c([N+](=O)[O-])cc1NC(C)=O | 8.71 µM |
| COc1cc(COc2ccc3c(C)c(CC(=O)O)c(=O)oc3c2C)cc(OC)c1OC | > 42 µM (inactive) |
| CCOc1cc(S(=O)(=O)NCc2ccc3c(c2)OCO3)c(C)cc1C | > 42 µM (inactive) |
| O=C1CN(C(=O)c2ccccc2F)C(c2ccccc2)c2cc(Cl)ccc2N1 (centres undefined) | 1.84 µM |
| CCOC(=O)Cn1c(C)c(Br)c(=O)c2cccc(C)c21 | > 42 µM (inactive) |
| CCOc1ccc(C(=O)NCC2OCCc3ccccc32)cc1 (centres undefined) | > 42 µM (inactive) |
| CCS(=O)(=O)N1CCC(C(=O)N2CCc3ccccc3C2)CC1 | > 42 µM (inactive) |
| O=C1N=C(N2CCOCC2)S/C1=C\c1cccnc1 | > 42 µM (inactive) |
| CCC(C)(C)NC(=O)C(c1ccc(C)cc1)N(CC1CCCO1)C(=O)CNC(=O)c1cccs1 (centres undefined) | > 42 µM (inactive) |
| O=C(Oc1ccccc1N1C(=O)C2CC=CCC2C1=O)c1ccc(Br)cc1 (centres undefined) | > 42 µM (inactive) |
| O=C(NC1CCCCC1)c1n[nH]c2c1CCCCC2 | > 42 µM (inactive) |
| CC(=O)Nc1ccc(S(=O)(=O)N(C)CC(=O)Nc2ccc(Br)cc2F)cc1 | > 42 µM (inactive) |
| Cc1cccc(NC(=O)CSCC(=O)N2CCCc3ccccc32)c1 | > 42 µM (inactive) |
| CC1CCCC(C)N1/N=C/c1cc(Br)cc(Br)c1O (centres undefined) | 12.5 µM |
| Cc1ccc(C(=O)NCCCN2CCOCC2)cc1 | > 42 µM (inactive) |
| CN(c1ccccc1)S(=O)(=O)c1ccc(C(=O)NCC2CCCO2)cc1 (centres undefined) | > 21 µM (inactive) |
| O=C(Cn1sc2ccccc2c1=O)NC12CC3CC(CC(C3)C1)C2 | 20.7 µM |
| CCOC(=O)C1CCN(CC(O)COc2ccc(C(C)(C)C)cc2)CC1 (centres undefined) | > 42 µM (inactive) |
| COc1ccc(-n2nc(C(=O)NCC(=O)N3CCCC3)c3ccccc3c2=O)c(OC)c1 | > 42 µM (inactive) |
| Cc1ccc(NC(=O)CSCC(=O)Nc2ccccc2N2CCCC2)cc1 | > 42 µM (inactive) |

| SMILES | AC50 |
| --- | --- |
| O=C(Nc1nnc(-c2ccco2)o1)c1ccc(S(=O)(=O)N2CCCC2)cc1 | > 42 µM (inactive) |
| CCCCCCCCc1nc(SCC(C)=O)n[nH]1 | > 42 µM (inactive) |
| Cc1sc2ncn(C(C)C(=O)OC3CCCCC3)c(=O)c2c1C (centres undefined) | > 42 µM (inactive) |
| CCc1ccc2nc(-c3cccc(C)c3)nc(SCC(=O)NCC3CCCO3)c2c1 (centres undefined) | > 42 µM (inactive) |
| Cc1ccc2nc(SCC(=O)Nc3cccc(S(N)(=O)=O)c3)[nH]c2c1 | > 42 µM (inactive) |
| COc1ccc(-n2c3c(cc(C(=O)NCC(=O)c4ccccc4)c2=O)C(=O)CC(C)(C)C3)cc1 | > 42 µM (inactive) |
| C[C@H]1O[C@H]1P(=O)(O)O | > 42 µM (inactive) |
| CCOc1ccc(-c2nc3n(c(=O)c2C#N)CCS3)cc1 | > 42 µM (inactive) |
| CN(C)c1ccc(C(CNS(=O)(=O)c2ccc([N+](=O)[O-])cc2)N2CCOCC2)cc1 (centres undefined) | > 42 µM (inactive) |
| Cc1ccc(NC(=O)Cn2nnc(C(=O)NCc3ccc4c(c3)OCO4)c2N)cc1 | > 42 µM (inactive) |
| COc1ccc(NC(=O)CN(C)C(=O)/C=C/c2cn(-c3ccccc3)nc2-c2ccc(C)cc2)cc1 | > 42 µM (inactive) |
| COc1ccc(CN2CC(=O)N(c3ccccc3C)C2=S)cc1OC | > 42 µM (inactive) |
| CCN(CC1COc2ccccc2O1)C(=S)NCCCN(C)C (centres undefined) | > 42 µM (inactive) |
| O=C(CN1CCN(C(=O)c2ccccc2)CC1)Nc1ncc(Br)cc1Br | > 42 µM (inactive) |
| CN(C)c1cccc(C(=O)Nc2cc(C(F)(F)F)ccc2-n2cnc3ccccc32)c1 | > 42 µM (inactive) |
| COc1cc(C(C2=C(O)CC(C)(C)CC2=O)C2C(=O)CC(C)(C)CC2=O)cc(OC)c1OC (centres undefined) | > 42 µM (inactive) |
| COC(=O)[C@@]12CCCCN1[C@H](c1ccc(-c3ccc(C(C)=O)cc3)cc1)[C@@H]1C(=O)N(C)C(=O)[C@@H]12 | > 42 µM (inactive) |
| Cc1ccc(NC(=O)Cn2c(CCC(=O)O)ccc2-c2cccs2)cc1 | > 42 µM (inactive) |
| CCC(=O)N(Cc1ccc2c(c1)OCO2)Cc1cc2cc(OC)ccc2[nH]c1=O | > 42 µM (inactive) |
| C(=N\Nc1ccc2nncn2n1)/c1ccccn1 | > 42 µM (inactive) |
| CC(=O)NC1CCCN(O)C(=O)/C=C(\C)CCOC(=O)C(NC(C)=O)CCCN(O)C(=O)/C=C(\C)CCOC(=O)C(NC(C)=O)CCCN(O)C(=O)/C=C(\C)CCOC1=O (centres undefined) | > 42 µM (inactive) |
| CN1CCN(CC(=O)N2c3ccccc3C(=O)Nc3cccnc32)CC1 | > 42 µM (inactive) |
| COc1ccc(Cn2nnnc2CN2CCN(c3ccc(OC)cc3)CC2)cc1 | > 42 µM (inactive) |
| COc1ccc(CN(C)S(=O)(=O)c2nnc(NC(=O)c3ccc(C)cc3)s2)cc1OC | > 42 µM (inactive) |
| COC(=O)Nc1ccc(S(=O)(=O)N2CCCC(C(=O)NC3CCS(=O)(=O)C3)C2)cc1 (centres undefined) | > 42 µM (inactive) |

| SMILES | AC50 |
| --- | --- |
| CCC1CCCCN1C(=O)CSc1nc2c([nH]c3ccccc32)c(=O)n1C (centres undefined) | > 42 µM (inactive) |
| CCCc1nnc(NC(=O)c2cn(CC)c3cc(N4CCN(C)CC4)c(F)cc3c2=O)s1 | > 21 µM (inactive) |
| Cc1nn(C)cc1S(=O)(=O)Nc1ncccn1 | > 42 µM (inactive) |
| COc1cc(C(=O)OCC(=O)NC(C)CCc2ccccc2)cc(OC)c1OC (centres undefined) | > 42 µM (inactive) |
| Cc1cc(C)n(-c2nc3ccccc3nc2N2CCN(C(=O)c3ccccc3)CC2)n1 | > 42 µM (inactive) |
| COc1ccc(CN(C)C(=O)c2sccc2-c2ccccc2)c(OC)c1 | > 42 µM (inactive) |
| COCCCn1c(=O)c2ccccc2n(Cc2ccccc2C)c1=O | > 42 µM (inactive) |
| C/C=C(/C)C(=O)OC1c2c(ccc3ccc(=O)oc23)OC(C)(C)C1OC(=O)/C(C)=C\C (centres undefined) | > 42 µM (inactive) |
| CCCCc1n[nH]c(=S)n1Cc1ccc(C)cc1 | > 42 µM (inactive) |
| COc1ccc(C2=Nn3c(nnc3-c3ccco3)SC2)cc1 | > 42 µM (inactive) |
| COc1ccc(Nc2cc(NCCCO)c([N+](=O)[O-])c3nonc23)cc1 | > 42 µM (inactive) |
| CCC(NC(=O)c1ccccc1NC(=O)c1ccco1)C(=O)NC1CCCCC1 (centres undefined) | > 42 µM (inactive) |
| O=[N+]([O-])c1nn(-c2ccc(Cl)cc2)n(O)c1=NCc1ccccc1Cl | 24 µM |
| CCOc1ccc(C(=O)Nc2ccc(C(F)(F)F)n(C)c2=O)cc1 | > 42 µM (inactive) |
| COc1ccccc1-c1nc2ccccc2nc1-c1ccccc1OC | > 42 µM (inactive) |
| COc1ccc(CCNC(=O)c2cc(-c3ccco3)on2)cc1OC | > 42 µM (inactive) |
| CCOc1ccc(-c2nc(C#N)c(N3CCOCC3)o2)cc1 | > 42 µM (inactive) |
| COc1ccc(Cl)cc1NC(=O)C1CCCN(c2cc(C)nc3ncnn23)C1 (centres undefined) | > 42 µM (inactive) |
| O=S(=O)(Cc1ccccc1)NCc1ccccn1 | > 42 µM (inactive) |
| OCCc1c[nH]c2cc(F)ccc12 | > 110 µM (inactive) |
| C/C=C/C(=O)N1c2ccc(C)cc2C(C)=CC1(C)C | > 42 µM (inactive) |
| COc1ccc(-c2nnc(SCC(=O)N3CCCCC3)o2)cc1 | > 42 µM (inactive) |
| Cc1ccc(-c2ccc(/C=N/n3cnnc3)o2)cc1 | > 42 µM (inactive) |
| CC(C)c1ccc2c(c1)CCC1C(C)(CN)CCCC21C (centres undefined) | 14.3 µM |
| N#CC1=C(SCC(N)=O)NC(=O)CC1c1ccccc1Cl (centres undefined) | 28.4 µM |

| SMILES | AC50 |
| --- | --- |
| CC/C(=N\Nc1ccc([N+](=O)[O-])cc1)c1ccccc1 | > 42 µM (inactive) |
| S=C(Nc1ccccc1Cl)N1CCOCC1 | > 42 µM (inactive) |
| O=C(CC(c1ccccc1)c1ccccc1O)NCCN1CCOCC1 (centres undefined) | > 42 µM (inactive) |
| CSCC[C@H](NC(=O)CC(C)(C)C)c1nc2ccccc2[nH]1 | > 42 µM (inactive) |
| COCCN1C(=O)/C(=C/c2cc3c(cc2Br)OCO3)NC1=S | > 42 µM (inactive) |
| CC(=O)Nc1ccccc1C(=O)C(=O)Nc1ccc(C(=O)NCC2CCCO2)cc1 (centres undefined) | > 42 µM (inactive) |
| COc1ccc(C2SCC(=O)Nc3c2c(=O)[nH]n3C2CCCCC2)cc1 (centres undefined) | > 42 µM (inactive) |
| O=C(NC1CCCCC1)N(Cc1cc2cc3c(cc2[nH]c1=O)OCCO3)C1CCCCC1 | > 42 µM (inactive) |
| O=c1c2ccccc2c2ccccc2c(=O)n1-c1ccccc1 | > 42 µM (inactive) |
| O=C(COc1ccc(-n2cnnn2)cc1)NCCc1ccc(F)cc1 | > 42 µM (inactive) |
| Cc1ccc(O)c(C)c1 | > 42 µM (inactive) |
| Cc1cnc(C(=O)OC(C(=O)c2c[nH]c3ccccc23)c2ccccc2)cn1 (centres undefined) | 29.4 µM |
| Cn1c(=O)[nH]c(=O)c2c1nc(Sc1ccccc1)n2CCc1ccccc1 | > 42 µM (inactive) |
| CN(C)CCNC(=O)c1scc2c1CCCC2 | 29.2 µM |
| CCNC(=O)C1CC(=O)N(Cc2ccc3c(c2)OCO3)C(=Nc2ccc(F)cc2)S1 (centres undefined) | > 42 µM (inactive) |
| COc1ccc(C(=O)Nn2c(SCC(=O)NCc3ccccc3)nc3ccccc3c2=O)cc1 | > 42 µM (inactive) |
| Cc1ccc2nc(NC(=O)CNS(=O)(=O)c3ccc(Br)s3)sc2c1 | > 42 µM (inactive) |
| O=C(O)CCC(=O)Nc1cccc(C(=O)Nc2ccc(Br)cc2)c1 | > 42 µM (inactive) |
| CC(=O)N1CCC2(CC1)CC(=O)c1cc(OCC(=O)N3CCCC3)ccc1O2 | > 42 µM (inactive) |
| N#CCCN(Cc1cccnc1)C(=O)Nc1cccc(Cl)c1 | > 42 µM (inactive) |
| CSc1ccccc1-c1nc(-c2ccncc2)no1 | > 42 µM (inactive) |
| CCn1c(SCc2nc3ccccc3s2)nnc1-c1ccccc1 | > 42 µM (inactive) |
| Cc1ccc(-c2nnc(SCC#N)n2N)cc1 | > 42 µM (inactive) |
| COC(=O)c1ccc(CSc2nc3ccccc3c(=O)n2CC(C)C)o1 | > 42 µM (inactive) |
